Laboratory results from ChEMBL document CHEMBL4834430, “Design and Structure-Activity Relationships of Isothiocyanates as Potent and Selective N-Acylethanolamine-Hydrolyzing Acid Amidase Inhibitors” (J Med Chem, 2021).
pIC50: −log10 of the molar value. Calls of active or inactive are those of the source. No cut-off for these calls is given here.

Tests used:
[1] = molecular target: T1, N-acylethanolamine-hydrolyzing acid amidase (Homo sapiens, UniProt Q02083); assay: Inhibition of human NAAA using N-(4-methyl coumarin)-palmitamide as fluorogenic substrate preincubated for 90 mins followed by substrate addition by fluorescence assay
T1 sequence (Q02083 whole entry): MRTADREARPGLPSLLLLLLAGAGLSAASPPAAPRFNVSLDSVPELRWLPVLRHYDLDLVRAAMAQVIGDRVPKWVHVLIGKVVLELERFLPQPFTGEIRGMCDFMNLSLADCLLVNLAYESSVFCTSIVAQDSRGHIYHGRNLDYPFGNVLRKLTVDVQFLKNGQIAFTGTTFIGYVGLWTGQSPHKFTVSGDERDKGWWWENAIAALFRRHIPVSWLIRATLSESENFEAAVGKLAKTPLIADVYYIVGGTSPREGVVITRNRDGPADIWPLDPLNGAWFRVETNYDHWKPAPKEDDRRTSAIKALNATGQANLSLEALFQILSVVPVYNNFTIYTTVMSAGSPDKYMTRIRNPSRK

Cytochrome P450 2C9 = Cytochrome P450 2C9 (Homo sapiens, UniProt P11712); assay: Inhibition of CYP2C9 (unknown origin) at 10 uM; format: ADME
[2] = molecular target: Sodium-dependent dopamine transporter (Homo sapiens) (UniProt Q01959); assay: Inhibition of DAT (unknown origin) at 10 uM
[3] = Mutagenecity in Salmonella typhimurium TA100 in presence of S9 fraction at 5 to 100 uM by Ames test; format: toxicity, subcellular; conditions: salmonella enterica subsp. enterica serovar typhimurium, s9, 100 µM; dose 5-100 µM
[4] = Volume of distribution in CD-1 mouse plasma at 2 mg/kg, iv measured up to 8 hrs; format: ADME, organism-based
[5] = molecular target: Sodium-dependent serotonin transporter (Homo sapiens) (UniProt P31645); assay: Inhibition of SERT (unknown origin) at 10 uM
[6] = Mutagenecity in Salmonella typhimurium TA100 in absence of S9 fraction at 5 to 100 uM by Ames test; format: toxicity; conditions: salmonella enterica subsp. enterica serovar typhimurium, s9, 100 µM; dose 5-100 µM
[7] = Volume of distribution in CD-1 mouse plasma at 8 mg/kg, po measured up to 8 hrs; format: ADME, organism-based; conditions: in vivo
[8] = Drug concentration in plasma of CD-1 mouse at 8 mg/kg, po administered as single cassette dose measured after 60 mins; format: ADME, organism-based
[9] = molecular target: Cannabinoid receptor 1 (Rattus norvegicus) (UniProt P20272); assay: Displacement of [3H]-CP55940 from rat forebrain CB1 receptor at 10 uM
[10] = Half life in mouse liver microsomes at 1 uM in presence of NADPH by LC-MS/MS analysis; format: ADME, Microsome
[11] = Oral bioavailability in CD-1 mouse plasma at 8 mg/kg measured up to 8 hrs; format: ADME, organism-based
Cytochrome P450 2C19 = Cytochrome P450 2C19 (Homo sapiens, UniProt P33261); assay: Inhibition of CYP2C19 (unknown origin); format: ADME
[12] = Mutagenecity in Salmonella typhimurium TA1535 in absence of S9 fraction at 5 to 100 uM by Ames test; format: toxicity; conditions: salmonella enterica subsp. enterica serovar typhimurium, s9, 100 µM; dose 5-100 µM
[13] = Half life in CD-1 mouse plasma at 2 mg/kg, iv measured up to 8 hrs; format: ADME, organism-based
[14] = Half life in rat liver microsomes at 1 uM in presence of NADPH by LC-MS/MS analysis; format: ADME, Microsome
[15] = Half life in human liver microsomes at 1 uM in presence of NADPH by LC-MS/MS analysis; format: ADME, Microsome

Sequence of Cytochrome P450 2C9 (P11712 whole entry): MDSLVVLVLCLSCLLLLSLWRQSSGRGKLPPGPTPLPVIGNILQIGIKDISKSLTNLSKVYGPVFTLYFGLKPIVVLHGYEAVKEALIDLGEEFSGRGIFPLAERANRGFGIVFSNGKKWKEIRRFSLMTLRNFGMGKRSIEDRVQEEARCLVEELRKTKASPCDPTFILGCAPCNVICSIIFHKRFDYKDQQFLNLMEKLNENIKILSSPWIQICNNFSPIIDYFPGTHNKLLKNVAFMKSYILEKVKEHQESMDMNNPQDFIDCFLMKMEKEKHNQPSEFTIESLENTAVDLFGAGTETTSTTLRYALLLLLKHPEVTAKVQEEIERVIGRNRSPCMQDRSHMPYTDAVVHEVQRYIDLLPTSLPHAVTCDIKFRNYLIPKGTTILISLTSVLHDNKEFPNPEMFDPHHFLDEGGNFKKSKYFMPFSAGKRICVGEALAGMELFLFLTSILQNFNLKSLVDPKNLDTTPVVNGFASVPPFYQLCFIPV
Sequence of Cytochrome P450 2C19 (P33261 whole entry): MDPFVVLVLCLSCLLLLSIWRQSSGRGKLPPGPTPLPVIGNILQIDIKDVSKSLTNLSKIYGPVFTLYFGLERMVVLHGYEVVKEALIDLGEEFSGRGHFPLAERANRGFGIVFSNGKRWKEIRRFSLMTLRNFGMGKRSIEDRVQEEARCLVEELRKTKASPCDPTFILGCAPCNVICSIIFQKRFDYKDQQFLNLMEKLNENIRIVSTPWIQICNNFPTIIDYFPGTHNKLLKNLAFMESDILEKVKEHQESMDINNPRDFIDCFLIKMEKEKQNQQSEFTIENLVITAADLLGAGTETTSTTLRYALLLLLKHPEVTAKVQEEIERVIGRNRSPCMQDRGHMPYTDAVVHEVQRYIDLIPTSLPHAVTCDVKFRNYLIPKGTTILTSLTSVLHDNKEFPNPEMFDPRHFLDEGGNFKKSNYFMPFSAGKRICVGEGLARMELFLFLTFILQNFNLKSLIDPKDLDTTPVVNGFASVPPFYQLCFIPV
Sequence of Sodium-dependent serotonin transporter (Homo sapiens) (P31645 whole entry, looked up): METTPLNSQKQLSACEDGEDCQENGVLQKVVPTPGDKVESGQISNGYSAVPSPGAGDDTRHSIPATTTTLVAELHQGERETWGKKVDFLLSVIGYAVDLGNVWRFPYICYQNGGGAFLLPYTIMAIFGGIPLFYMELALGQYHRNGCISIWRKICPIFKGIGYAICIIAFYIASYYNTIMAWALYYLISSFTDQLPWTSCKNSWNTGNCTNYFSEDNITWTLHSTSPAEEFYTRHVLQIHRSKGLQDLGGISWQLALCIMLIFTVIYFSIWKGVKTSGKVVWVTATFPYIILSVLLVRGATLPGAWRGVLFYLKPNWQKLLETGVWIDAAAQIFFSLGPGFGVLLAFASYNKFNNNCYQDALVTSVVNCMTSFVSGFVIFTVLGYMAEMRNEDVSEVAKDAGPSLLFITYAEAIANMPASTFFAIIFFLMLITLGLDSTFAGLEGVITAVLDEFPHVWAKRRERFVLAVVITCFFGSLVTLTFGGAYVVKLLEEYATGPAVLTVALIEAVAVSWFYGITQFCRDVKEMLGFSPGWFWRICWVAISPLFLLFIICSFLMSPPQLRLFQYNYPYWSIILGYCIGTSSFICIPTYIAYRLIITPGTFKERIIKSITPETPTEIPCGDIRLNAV
Sequence of Cannabinoid receptor 1 (Rattus norvegicus) (P20272 whole entry): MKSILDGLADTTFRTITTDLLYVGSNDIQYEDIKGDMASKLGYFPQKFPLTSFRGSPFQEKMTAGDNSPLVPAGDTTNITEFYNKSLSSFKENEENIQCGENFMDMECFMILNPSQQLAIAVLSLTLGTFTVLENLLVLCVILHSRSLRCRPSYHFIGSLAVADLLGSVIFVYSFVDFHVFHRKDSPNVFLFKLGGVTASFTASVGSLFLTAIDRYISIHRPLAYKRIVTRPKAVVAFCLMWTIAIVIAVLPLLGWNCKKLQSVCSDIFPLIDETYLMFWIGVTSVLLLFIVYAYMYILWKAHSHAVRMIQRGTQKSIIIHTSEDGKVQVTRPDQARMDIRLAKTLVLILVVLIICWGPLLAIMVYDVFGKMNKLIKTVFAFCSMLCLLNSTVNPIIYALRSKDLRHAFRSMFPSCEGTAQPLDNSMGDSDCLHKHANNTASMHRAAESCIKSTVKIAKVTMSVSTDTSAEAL
Sequence of Sodium-dependent dopamine transporter (Homo sapiens) (Q01959 whole entry): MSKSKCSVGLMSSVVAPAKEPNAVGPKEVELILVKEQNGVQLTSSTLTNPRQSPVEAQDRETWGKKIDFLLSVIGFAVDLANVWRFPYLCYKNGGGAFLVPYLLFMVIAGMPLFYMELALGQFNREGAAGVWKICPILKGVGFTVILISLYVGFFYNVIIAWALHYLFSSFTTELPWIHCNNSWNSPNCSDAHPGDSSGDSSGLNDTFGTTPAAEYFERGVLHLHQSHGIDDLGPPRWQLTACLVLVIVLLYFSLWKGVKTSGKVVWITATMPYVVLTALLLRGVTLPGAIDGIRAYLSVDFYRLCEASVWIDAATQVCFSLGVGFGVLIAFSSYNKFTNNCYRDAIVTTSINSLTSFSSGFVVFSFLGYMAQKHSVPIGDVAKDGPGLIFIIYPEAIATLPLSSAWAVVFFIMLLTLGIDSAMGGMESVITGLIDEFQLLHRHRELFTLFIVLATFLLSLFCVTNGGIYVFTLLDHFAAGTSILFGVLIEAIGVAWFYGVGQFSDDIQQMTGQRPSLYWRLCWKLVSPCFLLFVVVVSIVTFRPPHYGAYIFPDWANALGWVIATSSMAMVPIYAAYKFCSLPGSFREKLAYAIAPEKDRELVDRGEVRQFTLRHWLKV

Which results are given for COc1ccc(-c2ccc(CO[C@H]3C[C@@H](N=C=S)C3)nc2)cc1F?
pIC50 [1]: 7.70; inhibition (INH) (Cytochrome P450 2C9): Not Active; inhibition [2]: inactive; Activity [3]: Non-Toxic; Vd [4]: 27 L/kg; inhibition [5]: inactive; Activity [6]: Non-Toxic; Vd [7]: 126 L/kg; concentration at 1 h [8]: 54 ng/mL; inhibition [9]: inactive; half-life at 1 µM [10]: 28.2 min; bioavailability [11]: 13%; pIC50 (Cytochrome P450 2C19): 5.48; Activity [12]: Non-Toxic; half-life [13]: 45.5 min; half-life at 1 µM [14]: 19.2 min; half-life at 1 µM [15]: 16.7 min
